This note sets out measurements from PMC10281321, “Discovery of an effective anti-inflammatory agent for inhibiting the activation of NF-κB” (Journal of Enzyme Inhibition and Medicinal Chemistry, 2023).

What all share (assay type): cell-based
In one data set the test system is NF-κB. The experiment in a line: NF-κB transcriptional activity dual-luciferase reporter assay, TNF-α stimulated. Particulars: Homo sapiens, HEK-293T, HEK293T cells transfected with NF-κB reporter plasmid, stimulated by TNF-α. On the procedure:
4.5. NF-κB transcriptional activity assay
HEK293T cells were seeded into 96 well plate at a density of 1×10^5 cells per well. After incubated for 24 hours, cells were transfected with NF-κB reporter plasmid at 100 ng/well using lip2000.Six hours later, the medium was replaced by fresh medium containing tested compounds with different concentrations. Then incubated for another hour, TNF-α was added for a final concentration at 10 ng/mL.12 hours later, the cell lysate was collected and the RLU was measured by microplate reader. […]
(In general: In a reporter assay the amount or activity of a reporter protein is the signal.)

Data set [1] has as its system LPS-stimulated RAW264.7 cells. The experiment in a line: NO release inhibition in LPS-stimulated RAW264.7 cells (Griess reagent). Particulars: for IC50: Mus musculus, LPS-stimulated RAW264.7 cells, Griess Reagent; for anti-inflammatory activity (in words): SAR summary covering NO release and NF-κB reporter inhibition. As for the experimental part: After incubated for 24 hours, cells were treated with tested compounds for different
concentrations(3.125,6.25,12.5,25 and 50μM) for 1 h, and then treated with 1 μg/mL LPS
for further 24 h. The supernatants were collected and NO level was measured using
Griess reagent (Beyotime, China). […]

The nature of data set [2]: Cytotoxicity by MTT assay.

Regarding `CCc1ccc(-c2cnc(N)c(C(=O)Nc3ccc(C(C)C)cc3)c2)cc1` [Compound 21], the IC50 (in general, the concentration needed to halve the response being measured) with NF-κB is more than 2 µM; in data set [1] it was more than 50 µM; in data set [2] it was more than 25 µM.

In the case of `CC(=O)Nc1ccc(NC(=O)c2cc(-c3cccc(C)c3)cnc2N)cc1` [Compound 29], the concentration for half-maximal inhibition (IC50) with NF-κB was more than 2 µM; in data set [1], more than 50 µM; in data set [2], more than 50 µM. The “anti-inflammatory activity (in words)” value in data set [1] is recorded as “anti-inflammatory activity decreased significantly”.

Turning to `CCc1ccc(-c2cnc(N)c(C(=O)Nc3cccc(N)c3)c2)cc1` [Compound 11], the IC50 in the data set with NF-κB is 0.0958 ± 0.0062 µM; in data set [1], 1.7 ± 0.9 µM; in data set [2], more than 25 µM.

Consider `CCc1ccc(-c2cnc(N)c(C(=O)Nc3ccc(C(N)=O)cc3)c2)cc1` [Compound 22], for which the half-maximal inhibitory concentration (IC50) was more than 2 µM in the data set on NF-κB, more than 50 µM in data set [1] and more than 25 µM in data set [2]. Further, the “anti-inflammatory activity (in words)” value in data set [1] is recorded as “loss of anti-inflammatory activity”.

`CCc1ccc(-c2cncc(C(=O)Nc3ccc(NC(C)=O)cc3)c2)cc1` [Compound 25]: the values for the IC50 (in the data set on NF-κB; in data set [1]; in data set [2]) were 1.33 ± 0.0163 µM, 25.4 ± 3.1 µM and more than 25 µM, respectively.

In the case of `CCc1ccc(-c2cnc(N)c(C(=O)Nc3ccccc3C)c2)cc1` [Compound 9], the concentration for half-maximal inhibition (IC50) in the data set with NF-κB is more than 2 µM; in data set [1], 30.2 ± 4 µM; in data set [2] it was more than 25 µM.

On to `COc1ccccc1-c1cnc(N)c(C(=O)Nc2ccc(NC(C)=O)cc2)c1` [Compound 33], for which the values for the IC50 (in the data set with NF-κB; in data set [1]; in data set [2]) were more than 2 µM, more than 50 µM and more than 50 µM, respectively.

Take `CC(=O)Nc1ccc(NC(=O)c2cc(-c3ccccc3C#N)cnc2N)cc1` [Compound 48]: the IC50 in the data set with NF-κB was more than 2 µM; in data set [1], more than 50 µM; in data set [2] it was more than 50 µM.

On to `CCc1ccc(-c2cc(C(=O)Nc3ccc(NC(C)=O)cc3)cnc2N)cc1` [Compound 27], for which the results for the IC50 (in the data set with NF-κB; in data set [1]; in data set [2]) were 1.11 ± 0.0124 µM, 21.5 ± 2.6 µM and more than 25 µM, respectively.

Take `CCc1ccc(-c2cnc(N)c(C(=O)Nc3ccc(OC)cc3)c2)cc1` [Compound 20]: the IC50 is more than 2 µM in the data set with NF-κB, 22 ± 0.8 µM in data set [1] and more than 25 µM in data set [2].

For `CC(=O)Nc1ccc(NC(=O)c2cc(-c3ccc(Cl)cc3)cnc2N)cc1` [Compound 35], the concentration for half-maximal inhibition (IC50) in the data set with NF-κB was 0.207 ± 0.013 µM; in data set [1], 4.2 ± 0.8 µM; in data set [2] it was more than 50 µM. Besides, the “anti-inflammatory activity (in words)” value in data set [1] is reported as “significantly improved the anti-inflammatory activity”.

Take `CC(=O)Nc1ccc(NC(=O)c2cc(-c3ccc(S(C)(=O)=O)cc3)cnc2N)cc1` [Compound 30]: the IC50 with NF-κB was 1.04 ± 0.0175 µM; in data set [1], 17.8 ± 2.7 µM; in data set [2], more than 50 µM.

As for `CC(=O)Nc1ccc(NC(=O)c2cc(-c3ccc(C(F)(F)F)cc3)cnc2N)cc1` [Compound 40], the values for the IC50 (in the data set with NF-κB; in data set [1]; in data set [2]) were more than 2 µM, 26.5 ± 3 µM and more than 50 µM, respectively.

Take `CC(=O)Nc1ccc(NC(=O)c2cc(-c3cccc(C#N)c3)cnc2N)cc1` [Compound 47]: the IC50 in the data set on NF-κB was more than 2 µM; in data set [1], 28.9 ± 2.1 µM; in data set [2], more than 50 µM.

Take `Cc1ccc(S(=O)(=O)/C=C/C#N)cc1` [Bay11-7082, reference compound]: the half-inhibitory concentration (IC50) in the data set with NF-κB was determined as 0.0915 ± 0.0103 µM; in data set [1], 2.1 ± 0.7 µM; in data set [2], 22.7 ± 3.4 µM.

Consider `COc1ccc(-c2cnc(N)c(C(=O)Nc3ccc(NC(C)=O)cc3)c2)c(F)c1` [Compound 52], for which the IC50 was 1.42 ± 0.0247 µM with NF-κB, more than 50 µM in data set [1] and more than 50 µM in data set [2].

Regarding `CCc1ccc(-c2cnc(N)c(C(=O)Nc3ccc(NC(C)=O)cc3)c2)cc1` [Compound 13], the IC50 with NF-κB is 0.7139 ± 0.0042 µM; in data set [1], 10.2 ± 5.4 µM; in data set [2] it was more than 25 µM. Further, the “cytotoxicity (in words)” value in data set [2] was “cytotoxicity is reduced”.

Consider `COc1ccc(-c2cnc(N)c(C(=O)Nc3ccc(NC(C)=O)cc3)c2)cc1` [Compound 31], for which the IC50 with NF-κB was more than 2 µM; in data set [1], more than 50 µM; in data set [2] it was more than 50 µM.

Regarding `CC(=O)Nc1ccc(NC(=O)c2cc(-c3ccccc3C(F)(F)F)cnc2N)cc1` [Compound 42], the IC50 in the data set on NF-κB is 1.01 ± 0.0184 µM; in data set [1], 14.6 ± 2.3 µM; in data set [2], more than 50 µM.

As to `CCc1ccc(-c2cnc(N)c(C(=O)Nc3ccccc3N)c2)cc1` [Compound 12], the IC50 came to 0.571 ± 0.0093 µM in the data set on NF-κB, 0.9 ± 0.5 µM in data set [1] and 4.7 ± 1 µM in data set [2].

Turning to `CC(=O)Nc1ccc(NC(=O)c2cc(-c3ccc(F)cc3)cnc2N)cc1` [Compound 38], the IC50 was 0.827 ± 0.0186 µM with NF-κB, 13.7 ± 1.8 µM in data set [1] and more than 50 µM in data set [2].

`CC(=O)Nc1ccc(NC(=O)c2cc(-c3ccc(O)cc3)cnc2N)cc1` [Compound 43]: the IC50 with NF-κB was more than 2 µM; in data set [1], more than 50 µM; in data set [2] it was more than 50 µM.

For `CCc1ccc(-c2cnc(N)c(C(=O)Nc3ccc(OC(F)(F)F)cc3)c2)cc1` [Compound 18], the figures for the IC50 (with NF-κB; in data set [1]; in data set [2]) were more than 2 µM, more than 50 µM and more than 25 µM, respectively. Also, the “anti-inflammatory activity (in words)” value in data set [1] is recorded as “loss of anti-inflammatory activity”.

Turning to `CCc1ccc(-c2cnc(N)c(C(=O)Nc3ccc(N)cc3)c2)cc1` [Compound 10], the IC50 in the data set with NF-κB was 0.42 ± 0.0104 µM; in data set [1], 2.3 ± 0.9 µM; in data set [2], 7.3 ± 1.2 µM.

Regarding `CC(=O)Nc1ccc(NC(=O)c2cc(-c3cccc(C(F)(F)F)c3)cnc2N)cc1` [Compound 41], the IC50 in the data set with NF-κB was 0.307 ± 0.0214 µM; in data set [1], 8.4 ± 1.7 µM; in data set [2] it was more than 50 µM.

In the case of `CC(=O)Nc1ccc(NC(=O)c2cc(-c3cccc(Cl)c3)cnc2N)cc1` [Compound 36], the 50% inhibitory concentration (IC50) in the data set on NF-κB is more than 2 µM; in data set [1], more than 50 µM; in data set [2] it was more than 50 µM.

Turning to `CCc1ccc(-c2cc(C(=O)Nc3ccc(NC(C)=O)cc3)ccn2)cc1` [Compound 24], the IC50 is 0.763 ± 0.0151 µM with NF-κB, 14.1 ± 1.7 µM in data set [1] and more than 25 µM in data set [2].

On to `CCc1ccc(-c2cnc(N)c(C(=O)Nc3ccccc3)c2)cc1` [Compound 6], for which the IC50 in the data set with NF-κB was 1.62 ± 0.0132 µM; in data set [1], 19.7 ± 2.6 µM; in data set [2], more than 25 µM.

Regarding `CC(=O)Nc1ccc(NC(=O)c2cc(-c3cccc(F)c3)cnc2N)cc1` [Compound 39], the results for the IC50 (in the data set on NF-κB; in data set [1]; in data set [2]) were more than 2 µM, more than 50 µM and more than 50 µM, respectively.

In the case of `CCc1ccc(-c2cnc(N)c(C(=O)Nc3ccc(F)cc3)c2)cc1` [Compound 16], the IC50 in the data set on NF-κB was more than 2 µM; in data set [1], more than 50 µM; in data set [2], more than 25 µM.

Take `CCc1ccc(-c2cccc(C(=O)Nc3ccc(NC(C)=O)cc3)c2)cc1` [Compound 23]: the concentration for half-maximal inhibition (IC50) is more than 2 µM in the data set with NF-κB, 32.7 ± 3.4 µM in data set [1] and more than 25 µM in data set [2].

As to `CC(=O)Nc1ccc(NC(=O)c2cc(-c3ccccc3O)cnc2N)cc1` [Compound 45], the IC50 with NF-κB was more than 2 µM; in data set [1], more than 50 µM; in data set [2], more than 50 µM.

With `CCc1ccc(-c2ccnc(C(=O)Nc3ccc(NC(C)=O)cc3)c2)cc1` [Compound 26], the 50% inhibitory concentration (IC50) in the data set with NF-κB is 1.96 ± 0.0535 µM; in data set [1], 19.5 ± 3.2 µM; in data set [2], more than 25 µM.

`CC(=O)Nc1ccc(NC(=O)c2cc(-c3ccc(C#N)cc3)cnc2N)cc1` [Compound 46]: the IC50 in the data set with NF-κB was more than 2 µM; in data set [1] it was more than 50 µM; in data set [2] it was more than 50 µM.
